Marks after values point to notes of the source that are not given here.
Tests used:
murine SPC [1] = experiment: Apoptosis in murine SPC, Annexin V-FITC staining and cytofluorimetry; format: cell-based, mouse
Source text: (§1) Experimental animals (C57BL/6 mice, BALB/c mice and Dark Agouti rats) were obtained from the Animal House Facility of the Institute for Biological Research “Sinisa Stanković”, Belgrade, Serbia. Spleen cells (SPC) were isolated from murine spleens and lymph node cells (LNC) were obtained from rat cervical lymph nodes of untreated animals. Draining lymph node cells (DLNC) were obtained from popliteal lymph nodes 8-10 days after immunization of rats with myelin basic protein (guinea pig MBP, kind gift from professor Alexander Fluegel, University of Goettingen, Germany) and complete Freund's adjuvant (CFA, Difco, Detroit, Mich.). The organs were mechanically disrupted, passed through 40-μm nylon mesh filter and the resulting suspension was collected by centrifugation. Red blood cells from single cell suspensions obtained from spleens were lysed using RBC Lysis Buffer (eBioscience, San Diego, Calif.). CD4+ cells were purified from SPC using biotin conjugated antibody specific for CD4 (eBioscience) and IMag SAv particles plus (BD Biosciences, San Diego, Calif.). Obtained purity of CD4 population was more than 97% as determined by flow cytometry. SPC and LNC were seeded at 5×10^6/ml/well, DLNC at 2.5×10^6/ml/well and CD4+ cells at 1×10^6/ml/well of 24-well plates. Cells infiltrating spinal cords (SC) were obtained from SC of rats immunized with MBP+CFA at the time when rats suffered from severe clinical signs of experimental autoimmune encephalomyelitis (EAE). Rats were perfused with sterile PBS, SC were homogenized, adjusted to 30% Percoll (Sigma-Aldrich) and overlaid on 70% Percoll gradient. Following centrifugation at 870 g for 50 min the SC cells (SCC) were recovered from the […] Percoll interface and washed in RPMI-1640 medium. SCC were seeded at 0.5×106/200 μl/well of 96-well plates. SPC and LNC were stimulated with 2.5 μg/ml concanavalin A (ConA, Sigma-Aldrich), DLNC with MBP (10 ng/ml), CD4+ cells with anti-CD3 and anti-CD28 antibody (1 μg/ml each, both from eBioscience) and SCC were left untreated.
The cells positive for Annexin V-FITC were considered apoptotic. The stained cells were acquired by a FACSCalibur cytometer (BD Biosciences) and analyzed using CellQuest Software (BD Biosciences).

murine SPC [2] = experiment: Cytokine generation (ELISA) in ConA-stimulated murine SPC; format: cell-based, mouse; details: for Effects on cytokines at low concentrations: unfractionated spleen cells and/or purified murine CD4 T cells, concentrations of 2.5 and 5 mM
Source text: as §1
(§2) Cytokine concentration in cell culture supernatants was determined by sandwich ELISA using MaxiSorp plates (Nunc, Rochild, Denmark) and anti-cytokine paired antibodies according to the manufacturer's instructions. Samples were analyzed in duplicate for murine/rat IL-17, murine IL-10, murine TNF, murine IL-4 (eBioscience), murine IFN-γ, rat IFN-γ, rat IL-4 (R&D, Minneapolis, Minn.), rat IL-10 and rat TNF (BD Biosciences). The results were calculated using standard curves made on the basis of known concentrations of the appropriate recombinant cytokines.
In order to investigate the potential of Saq-NO to modulate cytokine production in immune cells, rat LNC were stimulated with ConA in the presence of various concentrations of Saq-NO for 24 hours and the levels of IFN-g, IL-4, IL-17, IL-10 and TNF were determined in cell-free culture supernatants. […] Effects of Saq-NO on the cytokine generation were examined in murine SPC, as well. Here, Saq-NO was applied in parallel with Saq and their influence on the cytokine generation and cell viability was compared. Further, two strains of mice were used, i.e. BALB/c and C57BL/6 mice which are prototypical Th2 and Th1 mice, respectively (Lohoff et al., 1998). […] Moreover, the influence of Saq-NO on the cytokines was evident with concentrations of the agent that had no effect on SPC viability (FIG. 2).

[3] = test system: S6 phosphorylation (S6 kinase activity); experiment: S6 phosphorylation in murine CD4+ cells (immunoblot); format: cell-based, mouse; details: anti-CD3 and anti-CD28, 24 hours
Experimental: Whole-cell lysates were prepared in a solution containing 62.5 mM Tris-HCl (pH 6.8, 2% w/v sodium dodecyl sulfate (SDS), 10% glycerol, 50 mM dithiothreitol (DTT), 0.01% w/v bromophenol blue, 1 mM phenylmethanesulphonyl fluoride or phenylmethylsulphonyl fluoride (PMSF), 1 μg/ml aprotinine, 2 mM EDTA and samples containing 20 μg of proteins (measured by Lowry protein assay) were electrophoresed on a 12% SDS-polyacrylamide gel. The samples were electro-transferred to polyvinylidene difluoride membranes at 5 mA/cm2, using semi-dry blotting system (Fastblot B43, Biorad, Muenchen, Germany). The blots were blocked with 5% w/v nonfat dry milk in PBS 0.1% Tween-20 and probed with specific antibodies to S6 and phosphorylated-S6 (Ser240/244) at 1:500 dilution (both from Cell Signaling Technology, Boston, Mass.), followed by incubation with secondary antibody at 1:10000 dilution (ECL donkey anti-rabbit horseradish peroxidase (HRP)-linked, GE Healthcare, Buckinghamshire, England, UK). […]
In an attempt to determine intracellular signaling that might be responsible for the observed influence of Saq-NO on the cytokines generation, level of S6 phosphorylation as the measure of S6 kinase activity was detected by immunoblot. CD4+ cells were stimulated with anti-CD3 and anti-CD28 in the presence of Saq-NO or Saq for 24 hours and cell lysates were subsequently obtained and analyzed.

[4] = test system: peripheral blood mononuclear cells; details: concentrations between 5 and 20 mM; cited from earlier work
spleen cells = details: ex vivo, cited from earlier work
SCC = experiment: IFN-g and IL-17 release from rat spinal cord infiltrating cells (SCC); format: cell-based; details: unstimulated SCC isolated at the peak of EAE
Source text: Experimental animals (C57BL/6 mice, BALB/c mice and Dark Agouti rats) were obtained from the Animal House Facility of the Institute for Biological Research “Sinisa Stanković”, Belgrade, Serbia. Spleen cells (SPC) were isolated from murine spleens and lymph node cells (LNC) were obtained from rat cervical lymph nodes of untreated animals. Draining lymph node cells (DLNC) were obtained from popliteal lymph nodes 8-10 days after immunization of rats with myelin basic protein (guinea pig MBP, kind gift from professor Alexander Fluegel, University of Goettingen, Germany) and complete Freund's adjuvant (CFA, Difco, Detroit, Mich.). […] Obtained purity of CD4 population was more than 97% as determined by flow cytometry. […]
as §2
Next, we determined the influence of Saq-NO on encephalitogen-specific generation of IFN-g and IL-17. […]

[5] = test system: melanoma, astrocytoma, prostate cancer cells and various human multidrug resistant tumor cell lines; details: cited from earlier work

| Compound | % of AnnV+ cells (murine SPC [1]; C 5 μg/ml) | % of AnnV+ cells (murine SPC [1]; C 10 μg/ml) | % of AnnV+ cells (murine SPC [1]; C 20 μg/ml) | Effects on cytokines at low concentrations (murine SPC [2]) | S6 phosphorylation [3] | PHA or anti-CD3-induced proliferation [4] | IL-1 beta, IL-10 and TNF-alpha production (spleen cells; in vivo exposure) | IFN-gamma and IL-2 secretion by spleen cells vs control mice (spleen cells; mice previously treated) | Production of IFN-g, IL-4, IL-17, TNF (murine SPC [2]; murine SPC) | Production of IL-10 (murine SPC [2]; murine SPC) | Effect on the release of IFN-g, IL-4, IL-17, IL-10 and TNF, compared with Saq (murine SPC [2]; murine SPC of BALB/c and C57BL/6 mice, ConA) | IFN-g and IL-17 release (SCC) | Anti-cancer properties in comparison to Saq [5] |
| --- | --- | --- | --- | --- | --- | --- | --- | --- | --- | --- | --- | --- | --- |
| CC(C)(C)NC(=O)[C@@H]1C[C@@H]2CCCC[C@@H]2CN1C[C@@H](O)[C@H](Cc1ccccc1)NC(=O)[C@H](CC(N)=O)NC(=O)c1ccc2ccccc2n1 [Saq, (2S)—N-[(2S,3R)-4-[(3S)-3-(tert-butylcarbamoyl)-decahydroisoquinolin-2-iy]-3-hydroxy-1-phenylbutan-2-il]-2-(quinolin-2-ylformamido)butanediamide, reference compound] | 27.5 +/− 4.8% | 31.6 +/− 6.4% | 49.8 +/− 4.8* % | No effects | much weaker | inhibited | not modified | secreted more | – | – | – | – | – |
| CC(C)(C)NC(=O)C1C[C@@H]2CCCC[C@@H]2CN1CC(O[N+](=O)[O-])[C@H](Cc1ccccc1)NC(=O)C(CC(N)=O)NC(=O)c1ccc2ccccc2n1 (stereo partly drawn) [Saq-NO, nitric ester of Saquinavir] | 30.2 +/− 7.5% | 38.4 +/− 4.8% | 44.5 +/− 11.5% | already observable | diminished | – | – | – | inhibited | stimulated | more profound effect | potently inhibited | superior |

Source: patent US20150283127A1, “SAQUINAVIR-NO FOR IMMUNOMODULATION” (ONCONOX APS, priority 2012, published 2015)
